Results from ChEMBL document CHEMBL1133669 (J Med Chem, 2000).

Assays:
Carbonic anhydrase 1 = Carbonic anhydrase 1 (Homo sapiens, UniProt P00915)
Description: Inhibitory activity against human carbonic anhydrase I (CA1)

Carbonic anhydrase 4 = molecular target: T1, Carbonic anhydrase 4 (Bos taurus, UniProt Q95323)
T1 sequence (Q95323 whole entry): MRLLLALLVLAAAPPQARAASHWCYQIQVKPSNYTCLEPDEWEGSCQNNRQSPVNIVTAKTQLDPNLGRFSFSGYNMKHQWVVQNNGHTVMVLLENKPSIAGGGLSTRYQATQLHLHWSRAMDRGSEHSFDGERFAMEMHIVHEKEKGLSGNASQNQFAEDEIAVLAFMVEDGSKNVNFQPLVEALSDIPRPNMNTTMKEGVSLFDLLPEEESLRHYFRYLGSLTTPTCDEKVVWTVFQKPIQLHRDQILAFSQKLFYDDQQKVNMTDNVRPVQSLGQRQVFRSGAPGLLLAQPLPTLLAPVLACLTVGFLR
Description: Inhibitory activity against bovine carbonic anhydrase IV (CA4), isolated from bovine lung microsomes

Chain of Carbonic anhydrase 1 (P00915 whole entry): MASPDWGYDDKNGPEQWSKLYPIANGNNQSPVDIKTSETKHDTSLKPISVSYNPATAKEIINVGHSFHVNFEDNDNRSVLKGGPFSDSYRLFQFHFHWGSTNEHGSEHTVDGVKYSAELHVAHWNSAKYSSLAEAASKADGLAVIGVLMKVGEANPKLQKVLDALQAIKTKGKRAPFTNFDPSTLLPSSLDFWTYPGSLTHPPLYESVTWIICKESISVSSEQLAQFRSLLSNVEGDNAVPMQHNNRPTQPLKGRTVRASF

| Ki (Carbonic anhydrase 1) [µM] | Ki (Carbonic anhydrase 4) [µM] | Structure (SMILES) |
| --- | --- | --- |
| 30.5 | 0.35 | CC(C)c1cc(-c2ccccc2)cc(C(C)C)[n+]1CC(=O)Nc1ccccc1S(N)(=O)=O |
| 1.35 | 0.075 | Cc1cc(-c2ccccc2)cc(C)[n+]1CC(=O)OCc1ccc(S(N)(=O)=O)cc1 |
| 0.015 | – | Cc1cc(C)[n+](CC(=O)Nc2ccc(S(=O)(=O)/N=c3/sc(S(N)(=O)=O)nn3C)cc2)c(C)c1 |
| – | 0.036 | CC(C)c1cc(-c2ccccc2)cc(C(C)C)[n+]1CC(=O)Nc1nnc(S(N)(=O)=O)s1 |
| 23.1 | 0.345 | CC(C)c1cc(-c2ccccc2)cc(C(C)C)[n+]1CC(=O)Nc1cccc(S(N)(=O)=O)c1 |
| 0.061 | 0.086 | Cc1cc(C)[n+](CC(=O)Nc2ccc(S(=O)(=O)Nc3cccc(S(N)(=O)=O)c3)cc2)c(C)c1 |
| 27.5 | 0.335 | CCc1cc(-c2ccccc2)cc(CC)[n+]1CC(=O)Nc1ccccc1S(N)(=O)=O |
| 1.5 | 0.084 | CCc1cc(-c2ccccc2)cc(CC)[n+]1CC(=O)OCCc1ccc(S(N)(=O)=O)cc1 |
| 0.047 | 0.062 | CC(C)c1cc(-c2ccccc2)cc(C(C)C)[n+]1CC(=O)Nc1nccc(Nc2ccc(S(N)(=O)=O)cc2)n1 |
| 0.055 | 0.078 | Cc1cc(C)[n+](CC(=O)Nc2ccc(S(=O)(=O)Nc3ccc(S(N)(=O)=O)cc3)cc2)c(C)c1 |
| 0.3 | 0.05 | Cc1cc(C)[n+](CC(=O)Nc2nnc(S(N)(=O)=O)s2)c(C)c1 |
| 0.8 | 0.077 | Cc1cc(C)[n+](CC(=O)Nc2ccc(S(N)(=O)=O)cc2Br)c(C)c1 |
| 0.038 | 0.055 | Cc1cc(-c2ccccc2)cc(C)[n+]1CC(=O)Nc1ccc(S(=O)(=O)Nc2cccc(S(N)(=O)=O)c2)cc1 |
| 21.8 | 0.31 | CCc1cc(-c2ccccc2)cc(CC)[n+]1CC(=O)Nc1cccc(S(N)(=O)=O)c1 |
| 0.62 | 0.064 | CCc1cc(-c2ccccc2)cc(CC)[n+]1CC(=O)Nc1ccc(S(N)(=O)=O)cc1I |
| 0.61 | 0.059 | Cc1cc(-c2ccccc2)cc(C)[n+]1CC(=O)Nc1ccc(S(N)(=O)=O)cc1I |
| 0.013 | 0.038 | CC(C)c1cc(-c2ccccc2)cc(C(C)C)[n+]1CC(=O)Nc1ccc2nc(S(N)(=O)=O)sc2c1 |
| 0.3 | 0.025 | CCc1cc(-c2ccccc2)cc(CC)[n+]1CC(=O)/N=c1/sc(S(N)(=O)=O)nn1C |
| 1.7 | 0.13 | Cc1cc(C)[n+](CC(=O)OCCc2ccc(S(N)(=O)=O)cc2)c(C)c1 |
| 24 | 0.41 | Cc1cc(C)[n+](CC(=O)Nc2cccc(S(N)(=O)=O)c2)c(C)c1 |
| – | 0.14 | Nc1cc(C(F)(F)F)c(S(N)(=O)=O)cc1S(N)(=O)=O [2,4-DISULFAMYLTRIFLUOROMETHYLANILINE] |

Further lines, the molecule ahead of its results:

| Structure (SMILES) | Ki (Carbonic anhydrase 1) [µM] | Ki (Carbonic anhydrase 4) [µM] |
| --- | --- | --- |
| CCc1cc(-c2ccccc2)cc(CC)[n+]1CC(=O)Oc1ccc2nc(S(N)(=O)=O)sc2c1 | 0.011 | 0.027 |
| CC(C)c1cc(-c2ccccc2)cc(C(C)C)[n+]1CC(=O)NCCC(=O)Nc1nnc(S(N)(=O)=O)s1 | – | 0.016 |
| CCc1cc(-c2ccccc2)cc(CC)[n+]1CC(=O)Nc1nccc(Nc2ccc(S(N)(=O)=O)cc2)n1 | 0.045 | 0.058 |
| CCc1cc(-c2ccccc2)cc(CC)[n+]1CC(=O)Nc1ccc(S(N)(=O)=O)cc1F | 0.75 | 0.039 |
| Cc1cc(-c2ccccc2)cc(C)[n+]1CC(=O)OCCOc1ccc2nc(S(N)(=O)=O)sc2c1 | 0.009 | 0.016 |
| Cc1cc(-c2ccccc2)cc(C)[n+]1CC(=O)Nc1ccccc1S(N)(=O)=O | 25.3 | 0.29 |
| Cc1cc(C)[n+](CC(=O)Nc2ccc(S(N)(=O)=O)cc2I)c(C)c1 | 0.81 | 0.078 |
| Cc1cc(C)[n+](CC(=O)Nc2ccc(S(=O)(=O)Nc3nnc(S(N)(=O)=O)s3)cc2)c(C)c1 | 0.015 | 0.012 |
| CC(C)c1cc(-c2ccccc2)cc(C(C)C)[n+]1CC(=O)Nc1ccc(S(N)(=O)=O)cc1F | 0.75 | 0.039 |
| CCc1cc(-c2ccccc2)cc(CC)[n+]1CC(=O)NCCc1ccc(S(N)(=O)=O)cc1 | 0.75 | 0.061 |
| Cc1cc(C)[n+](CC(=O)Nc2ccc(S(N)(=O)=O)cc2Cl)c(C)c1 | 0.68 | 0.07 |
| CC(C)c1cc(-c2ccccc2)cc(C(C)C)[n+]1CC(=O)Nc1ccc(S(N)(=O)=O)cc1I | 0.63 | 0.075 |
| CCc1cc(-c2ccccc2)cc(CC)[n+]1CC(=O)NCCC(=O)Nc1nnc(S(N)(=O)=O)s1 | – | 0.019 |
| Cc1cc(-c2ccccc2)cc(C)[n+]1CC(=O)NCc1ccc(S(N)(=O)=O)cc1 | 1.25 | 0.05 |
| Cc1cc(C)[n+](CC(=O)Nc2ccccc2S(N)(=O)=O)c(C)c1 | 32 | 0.425 |
| Cc1cc(-c2ccccc2)cc(C)[n+]1CC(=O)Oc1ccc2nc(S(N)(=O)=O)sc2c1 | 0.011 | 0.017 |
| Cc1cc(C)[n+](CC(=O)NCCc2ccc(S(N)(=O)=O)cc2)c(C)c1 | 0.805 | 0.071 |

| Structure (SMILES) | Ki (Carbonic anhydrase 1) [µM] | Ki (Carbonic anhydrase 4) [µM] |
| --- | --- | --- |
| CCc1cc(-c2ccccc2)cc(CC)[n+]1CC(=O)OCCOc1ccc2nc(S(N)(=O)=O)sc2c1 | 0.01 | 0.025 |
| Cc1cc(C)[n+](CC(=O)OCCOc2ccc3nc(S(N)(=O)=O)sc3c2)c(C)c1 | 0.012 | 0.033 |
| Cn1nc(S(N)(=O)=O)s/c1=N/S(=O)(=O)c1ccc(N)cc1 | 0.001 | 0.0008 |
| CC(C)c1cc(-c2ccccc2)cc(C(C)C)[n+]1CC(=O)NNc1ccc(S(N)(=O)=O)cc1 | 34 | 0.36 |
| CC(C)c1cc(-c2ccccc2)cc(C(C)C)[n+]1CC(=O)Nc1ccc(S(N)(=O)=O)cc1 | 15 | 0.18 |
| CC(C)c1cc(-c2ccccc2)cc(C(C)C)[n+]1CC(=O)OCCc1ccc(S(N)(=O)=O)cc1 | 1.65 | 0.115 |
| Cc1cc(-c2ccccc2)cc(C)[n+]1CC(=O)Nc1ccc(S(=O)(=O)Nc2ccc(S(N)(=O)=O)cc2)cc1 | 0.041 | 0.054 |
| Cc1cc(-c2ccccc2)cc(C)[n+]1CC(=O)Nc1ccc(S(=O)(=O)Nc2nnc(S(N)(=O)=O)s2)cc1 | 0.01 | 0.009 |
| CCc1cc(-c2ccccc2)cc(CC)[n+]1CC(=O)NCc1ccc(S(N)(=O)=O)cc1 | 1.4 | 0.067 |
| Cc1cc(C)[n+](CC(=O)/N=c2/sc(S(N)(=O)=O)nn2C)c(C)c1 | 0.33 | 0.06 |
| CCc1cc(-c2ccccc2)cc(CC)[n+]1CC(=O)Nc1ccc(S(=O)(=O)Nc2cccc(S(N)(=O)=O)c2)cc1 | 0.043 | 0.06 |
| CC(C)c1cc(-c2ccccc2)cc(C(C)C)[n+]1CC(=O)Nc1ccc(S(N)(=O)=O)cc1Br | 0.645 | 0.07 |
| Cc1cc(C)[n+](CC(=O)Nc2c(S(N)(=O)=O)cc(S(N)(=O)=O)c(Cl)c2Cl)c(C)c1 | 0.55 | 0.067 |
| Cc1cc(C)[n+](CC(=O)Nc2nccc(Nc3ccc(S(N)(=O)=O)cc3)n2)c(C)c1 | 0.052 | 0.069 |
| CC(C)c1cc(-c2ccccc2)cc(C(C)C)[n+]1CC(=O)Nc1ccc(S(=O)(=O)Nc2cccc(S(N)(=O)=O)c2)cc1 | 0.053 | 0.072 |
| CCc1cc(-c2ccccc2)cc(CC)[n+]1CC(=O)Nc1ccc(S(N)(=O)=O)cc1Cl | 0.61 | 0.046 |
| Cc1cc(-c2ccccc2)cc(C)[n+]1CC(=O)NCCC(=O)Nc1nnc(S(N)(=O)=O)s1 | – | 0.015 |
